Measured values as given in patent US4207330A, “Method for treating hyperglycemia in mammals using arylamino benzoic acids” (The Dow Chemical Company, priority 1979, dated 1980).
Like-named read-outs stand apart in the source and are kept apart here.

Test system: serum glucose
Assay: Hypoglycemic activity in alanine-induced mice (percent lowering of serum glucose; ED50)
Format: in vivo, male Swiss-Webster mice
Conditions: for inhibition in vivo at 60 mg/kg / ED50: Mus musculus, ip, 1 h; for inhibition in vivo at 60 mg/kg: 60 mg/kg intraperitoneal, 15 min before 10 mmol/kg L-alanine i.p., serum glucose 60 min after compound, 100% = lowering from alanine-induced level to fasted control level, read-out: % Lowering Blood Sugar; for ED50: read-out: ED50 (amount required to obtain a 50% reduction in serum glucose as compared to the control animals)
Method: Alanine is the most glucogenic of the amino acids and also stimulates gluconeogensis in normal animals. Animals suffering from diabetes show an exaggerated hyperglycemic response to a protein or amino acid meal, therefore the hyperglycemic state induced by alanine closely parallels the response of a diabetic mammal.
Fifteen minutes later the same mice were injected intrapertioneally with 10 m moles/kg body weight of L-alanine. Sixty minutes after injection of the active compound, the animals were sacrificed and their sera were analyzed for glucose. The control consisted of both fasted mice and mice injected with alanine. The results are expressed as percent lowering of serum glucose from the alanine induced hyperglycemic level to the fasted control glucose level, i.e. lowering to the fasting glucose level is 100% lowering.
The effective dose (ED50) of several of the subject compounds were determined.
*effective dose represents the amount of the active ingredient required t
obtain a 50% reduction in serum glucose as compared to the control

[1] = 50% reduction in serum glucose vs control animals

Compound	inhibition in vivo at 60 mg/kg	further results
O=C(O)c1ccc(Nc2ccccc2)cc1 [Example 1, p-anilinobenzoic acid]	88%	–
CC(C)c1ccc(CNc2ccc(C(=O)O)cc2)cc1 [Example 2, 4-(((4-(1-methylethyl)phenyl)methyl)amino)benzoic acid]	78%	–
O=C(O)c1ccc(NCc2ccc(Cl)cc2)cc1 [Example 3, 4-(((4-chlorophenyl)methyl)amino)benzoic acid]	111%	ED50 [1]: 11 mg/kg
Cc1ccc(CNc2ccc(C(=O)O)cc2)cc1 [Example 4, 4-(((4-methylphenyl)methyl)amino)benzoic acid]	144%	ED50 [1]: 15 mg/kg
CCc1ccc(CNc2ccc(C(=O)O)cc2)cc1 [Example 5, 4-(((4-ethylphenyl)methyl)amino)benzoic acid]	96%	ED50 [1]: 15 mg/kg
O=C(O)c1ccc(NCc2ccc(F)cc2)cc1 [Example 6, 4-(((4-fluorophenyl)methyl)amino)benzoic acid]	110%	–
CCOC(=O)c1ccc(NCc2cccs2)cc1 [Example 7, 4-((2-thienylmethyl)amino)benzoic acid ethyl ester]	78%	–
O=C(O)c1ccc(NCc2cccs2)cc1 [Example 8, 4-((2-thienylmethyl)amino)benzoic acid]	51%	–
O=C(O)c1ccc(NCc2cccc(Cl)c2)cc1 [Example 9, 4-(((3-chlorophenyl)methyl)amino)benzoic acid]	64%	–
O=C(O)c1ccc(NCCCc2ccccc2)cc1 [Example 10, 4-((3-phenylpropyl)amino)benzoic acid]	99%	–
O=C(O)c1ccc(NCc2ccc(C(F)(F)F)cc2)cc1 [Example 11, 4-(((4-(trifluoromethyl)phenyl)methyl)amino)benzoic]	106%	–
O=C(O)c1ccc(NCc2ccc(Cl)cc2)cc1.[Na] [Example 12, 4-(((4-chlorophenyl)methyl)amino)benzoic acid sodium]	–	ED50: 6 mg/kg
O=C(O)c1ccc(NCc2cccc(F)c2)cc1 [Example 13, 4-(((3-fluorophenyl)methyl)amino)benzoic acid]	52%	–
O=C(O)c1ccc(NCc2cc(Cl)c(Cl)s2)cc1 [Example 14, 4-(((4,5-dichloro-2-thienyl)methyl)amino)benzoic acid]	83%	–
O=C(O)c1ccc(NCc2ccc(Br)s2)cc1 [Example 15, 4-(((5-bromo-2-thienyl)methyl)amino)benzoic acid]	210%	ED50 [1]: 4.6 mg/kg; hypoglycemic activity at low dosage (in words) (mice, dosages as low as 7.5 mg per kg of body weight): significant hypoglycemic activity; hypoglycemic activity (in words) (mice, compounds tested): highest activity as a hypoglycemic agent of the compounds tested
